Data on 6 compounds can be found in ChEMBL document CHEMBL1122675, “Topical carbonic anhydrase inhibitors” (J Med Chem, 1984).

Values after ≈ are worked out from the molar mass of the structure shown.

Data set [1] is described as follows: Corneal permeability coefficient was determined. The class given is ADME.
Data set [2] in a line: Solubility at a pH 7.2 phosphate buffer, 37 degrees celsius (N=6). It is filed as physicochemical.
Data set [3] is described as follows: Compound was tested for Octanol / pH 7.2 phosphate buffer distribution coefficient (N=2-3). It is filed as physicochemical.
Data set [4] can be described thus: Acid dissociation constant was determined. It is filed as ADME.
Data set [5] addresses Carbonic anhydrase (Homo sapiens) (UniProt P00918+P43166+P00915+P07451+P23280+O43570+Q9ULX7+Q16790+P22748+Q8N1Q1+Q9Y2D0+P35218).
Description: Compound was tested for relative in vitro carbonic anhydrase activity from human red blood cell.
[6] abbreviates: phosphate buffer, read-out: Solubility.

As usually defined, the solubility is the concentration that dissolves in the medium under given conditions. For orientation: logD means the decadic logarithm of the distribution of all forms, ionised or not, between an organic phase and buffer at a given pH. Low readings indicate a more hydrophilic compound, high ones a more lipophilic compound. Compound `CCOc1ccc2nc(S(N)(=O)=O)sc2c1` [ETHOXZOLAMIDE] returned a Permeability coefficient in data set [1] of 43.9 ×10⁻⁶ cm/s. Also, the solubility in data set [2] (setting [6]) stood at 60 µg/mL (≈ 232 µM). Also, in data set [3], the logD turned out to be 2.06.

For orientation: pKa means the pH at which an ionisable group is half protonated. `NS(=O)(=O)c1nc2ccc(Cl)cc2s1`: the solubility in data set [2] (setting [6]) came out at 607 µg/mL (≈ 2440 µM). In data set [4] (read-out: pKa), the pKa was 7.72. This compound also registered a CAI activity in data set [5] of 1.23. The compound further gave a logD in data set [3] of 2.1.

As to `NS(=O)(=O)c1nc2ccccc2s1`, the Permeability coefficient in data set [1] was determined as 36.2 ×10⁻⁶ cm/s. In data set [2] (buffer), this compound returned a solubility of 1021 µg/mL (≈ 4760 µM). Moreover, the pKa in data set [4] (read-out: pKa) was 7.9. Also, the logD in data set [3] was determined as 1.33.

In the case of `CCOc1ccc2nc(S(=O)(=O)NC)sc2c1`, in data set [2] (setting [6]), the solubility was 64 µg/mL (≈ 235 µM). The pKa in data set [4] (read-out: pKa) worked out at 9.1. This compound gave a CAI activity in data set [5] of 0.0064. In addition, the logD in data set [3] amounted to 2.59.

As for `NS(=O)(=O)c1nc2ccc(O)cc2s1`, the solubility in data set [2] (buffer) came to 1560 µg/mL (≈ 6770 µM). In addition, the pKa in data set [4] worked out at 9.26; in data set [4] (read-out: pKa), 7.81. In data set [3], the logD was found to be 1.12.

Take `CCOc1ccc2nc(S(=O)(=O)NC(C)=O)sc2c1`: the solubility in data set [2] (setting [6]) was determined as 11500 µg/mL (≈ 38300 µM). Further, in data set [4] (read-out: pKa), the pKa was found to be 2.95. In data set [5], the CAI activity was determined as 0.0041. The logD in data set [3] was -1.02.
